Data reported in patent EP4635500A1, “THERAPEUTIC AGENT FOR BACTERIAL INFECTION” (Sumitomo Pharma Co., Ltd., priority 2022, dated 2024).
Like-named read-outs stand apart in the source and are kept apart here.

Columns and labels:
Format in all cases: cell-based
[1] = tested on: Metallo-β-lactamase producing strains (N = 27); experiment: MIC50/MIC90 for carbapenemase-producing isolates (Example 5, Table 6); conditions: metallo-β-lactamase-producing strains; combination: Compound A at a fixed concentration of 4 µg/mL; read-out: MIC90
P. aeruginosa = experiment: MIC, broth microdilution, CDC/FDA Antibiotic Resistance Isolate Bank (Example 7, Tables 10, 15); conditions: for MIC: Pseudomonas aeruginosa, read-out: MIC
53 CRE and CPE strains = experiment: MICrange, MIC50, MIC80, MIC90 for 53 bacterial isolates (Example 5, Table 5)
[2] = 26 metallo-carbapenemase-producing P. aeruginosa strains, β-lactamase inhibitor µg/mL in parentheses
[3] = 96 strains of P. aeruginosa, β-lactamase inhibitor µg/mL in parentheses

CN(C)c1cc(NC(=O)CNC(C)(C)C)c(O)c2c1C[C@H]1C[C@H]3[C@H](N(C)C)C(O)=C(C(N)=O)C(=O)[C@@]3(O)C(O)=C1C2=O [Tigecycline, tigecycline]
0.016 µg/mL: MIC (P. aeruginosa; P. aeruginosa KUB No. 5813, AR Bank # 508) | MIC (P. aeruginosa; P. aeruginosa KUB No. 5817, AR Bank # 512) | MIC (P. aeruginosa; P. aeruginosa KUB No. 5823, AR Bank # 518)
0.5 µg/mL: MIC (P. aeruginosa; P. aeruginosa KUB No. 5685, AR Bank # 252) | MIC50 (53 CRE and CPE strains; 53 bacterial isolates, read-out: MIC50)
4 µg(mL): MIC against 26 metallo-carbapenemase-producing strains MIC50 (P. aeruginosa; [2]) | MIC against 96 strains of P. aeruginosa MIC50 (P. aeruginosa; [3])
0.5 - 16 µg(mL): MIC against 96 strains of P. aeruginosa MICrange (P. aeruginosa; [3])
8 µg/mL: MIC (P. aeruginosa; P. aeruginosa KUB No. 5591, AR Bank # 94) | MIC (P. aeruginosa; P. aeruginosa KUB No. 5602, AR Bank # 105) | MIC (P. aeruginosa; P. aeruginosa KUB No. 5605, AR Bank # 108) | MIC (P. aeruginosa; P. aeruginosa KUB No. 5607, AR Bank # 110) | MIC (P. aeruginosa; P. aeruginosa KUB No. 5608, AR Bank # 111) | MIC (P. aeruginosa; P. aeruginosa KUB No. 5666, AR Bank # 23) | MIC (P. aeruginosa; P. aeruginosa KUB No. 5668, AR Bank # 235) | MIC (P. aeruginosa; P. aeruginosa KUB No. 5673, AR Bank # 240) | MIC (P. aeruginosa; P. aeruginosa KUB No. 5690, AR Bank # 257) | MIC (P. aeruginosa; P. aeruginosa KUB No. 5694, AR Bank # 261) | MIC (P. aeruginosa; P. aeruginosa KUB No. 5698, AR Bank # 265) | MIC (P. aeruginosa; P. aeruginosa KUB No. 5699, AR Bank # 266) | MIC (P. aeruginosa; P. aeruginosa KUB No. 5700, AR Bank # 267) | MIC (P. aeruginosa; P. aeruginosa KUB No. 5703, AR Bank # 270) | MIC (P. aeruginosa; P. aeruginosa KUB No. 5747, AR Bank # 351) | MIC (P. aeruginosa; P. aeruginosa KUB No. 5748, AR Bank # 352) | MIC (P. aeruginosa; P. aeruginosa KUB No. 5751, AR Bank # 355) | MIC (P. aeruginosa; P. aeruginosa KUB No. 5753, AR Bank # 357) | MIC (P. aeruginosa; P. aeruginosa KUB No. 5786, AR Bank # 440) | MIC (P. aeruginosa; P. aeruginosa KUB No. 5799, AR Bank # 456) | MIC (P. aeruginosa; P. aeruginosa KUB No. 5801, AR Bank # 458) | MIC (P. aeruginosa; P. aeruginosa KUB No. 5804, AR Bank # 862) | MIC (P. aeruginosa; P. aeruginosa KUB No. 5805, AR Bank # 863)
2 µg/mL: MIC (P. aeruginosa; P. aeruginosa KUB No. 5561, AR Bank # 64) | MIC (P. aeruginosa; P. aeruginosa KUB No. 5587, AR Bank # 90) | MIC (P. aeruginosa; P. aeruginosa KUB No. 5592, AR Bank # 95) | MIC (P. aeruginosa; P. aeruginosa KUB No. 5667, AR Bank # 234) | MIC (P. aeruginosa; P. aeruginosa KUB No. 5670, AR Bank # 237) | MIC (P. aeruginosa; P. aeruginosa KUB No. 5675, AR Bank # 242) | MIC (P. aeruginosa; P. aeruginosa KUB No. 5681, AR Bank # 248) | MIC (P. aeruginosa; P. aeruginosa KUB No. 5686, AR Bank # 253) | MIC (P. aeruginosa; P. aeruginosa KUB No. 5688, AR Bank # 255) | MIC (P. aeruginosa; P. aeruginosa KUB No. 5691, AR Bank # 258) | MIC (P. aeruginosa; P. aeruginosa KUB No. 5693, AR Bank # 260) | MIC (P. aeruginosa; P. aeruginosa KUB No. 5695, AR Bank # 262) | MIC (P. aeruginosa; P. aeruginosa KUB No. 5697, AR Bank # 264) | MIC (P. aeruginosa; P. aeruginosa KUB No. 5701, AR Bank # 268) | MIC (P. aeruginosa; P. aeruginosa KUB No. 5705, AR Bank # 272) | MIC (P. aeruginosa; P. aeruginosa KUB No. 5749, AR Bank # 353) | MIC (P. aeruginosa; P. aeruginosa KUB No. 5752, AR Bank # 356) | MIC (P. aeruginosa; P. aeruginosa KUB No. 5800, AR Bank # 457) | MIC (P. aeruginosa; P. aeruginosa KUB No. 5806, AR Bank # 864) | MIC90 (53 CRE and CPE strains; 53 CRE and CPE strains, read-out: MIC90) | MIC90 (53 CRE and CPE strains; 53 bacterial isolates)
1 - 16 µg(mL): MIC against 26 metallo-carbapenemase-producing strains MICrange (P. aeruginosa; [2])
0.004 µg/mL: MIC (P. aeruginosa; P. aeruginosa KUB No. 5816, AR Bank # 511) | MIC (P. aeruginosa; P. aeruginosa KUB No. 5819, AR Bank # 514) | MIC (P. aeruginosa; P. aeruginosa KUB No. 5821, AR Bank # 516) | MIC (P. aeruginosa; P. aeruginosa KUB No. 5831, AR Bank # 526) | MIC (P. aeruginosa; P. aeruginosa KUB No. 5833, AR Bank # 528) | MIC (P. aeruginosa; P. aeruginosa KUB No. 5834, AR Bank # 529)
0.008 µg/mL: MIC (P. aeruginosa; P. aeruginosa KUB No. 5814, AR Bank # 509) | MIC (P. aeruginosa; P. aeruginosa KUB No. 5818, AR Bank # 513) | MIC (P. aeruginosa; P. aeruginosa KUB No. 5820, AR Bank # 515)
16 µg(mL): MIC against 26 metallo-carbapenemase-producing strains MIC90 (P. aeruginosa; [2]) | MIC against 96 strains of P. aeruginosa MIC90 (P. aeruginosa; [3])
4 µg/mL: MIC90 [1] | MIC (P. aeruginosa; P. aeruginosa KUB No. 579, AR Bank # 447) | MIC (P. aeruginosa; P. aeruginosa KUB No. 5589, AR Bank # 92) | MIC (P. aeruginosa; P. aeruginosa KUB No. 5663, AR Bank # 230) | MIC (P. aeruginosa; P. aeruginosa KUB No. 5665, AR Bank # 232) | MIC (P. aeruginosa; P. aeruginosa KUB No. 5669, AR Bank # 236) | MIC (P. aeruginosa; P. aeruginosa KUB No. 5671, AR Bank # 238) | MIC (P. aeruginosa; P. aeruginosa KUB No. 5672, AR Bank # 239) | MIC (P. aeruginosa; P. aeruginosa KUB No. 5674, AR Bank # 241) | MIC (P. aeruginosa; P. aeruginosa KUB No. 5679, AR Bank # 246) | MIC (P. aeruginosa; P. aeruginosa KUB No. 5680, AR Bank # 247) | MIC (P. aeruginosa; P. aeruginosa KUB No. 5682, AR Bank # 249) | MIC (P. aeruginosa; P. aeruginosa KUB No. 5684, AR Bank # 251) | MIC (P. aeruginosa; P. aeruginosa KUB No. 5692, AR Bank # 259) | MIC (P. aeruginosa; P. aeruginosa KUB No. 5702, AR Bank # 269) | MIC (P. aeruginosa; P. aeruginosa KUB No. 5704, AR Bank # 271) | MIC (P. aeruginosa; P. aeruginosa KUB No. 5750, AR Bank # 354) | MIC (P. aeruginosa; P. aeruginosa KUB No. 5754, AR Bank # 358) | MIC (P. aeruginosa; P. aeruginosa KUB No. 5755, AR Bank # 359) | MIC (P. aeruginosa; P. aeruginosa KUB No. 5756, AR Bank # 360) | MIC (P. aeruginosa; P. aeruginosa KUB No. 5785, AR Bank # 439) | MIC (P. aeruginosa; P. aeruginosa KUB No. 5787, AR Bank # 441) | MIC (P. aeruginosa; P. aeruginosa KUB No. 5788, AR Bank # 443) | MIC (P. aeruginosa; P. aeruginosa KUB No. 5789, AR Bank # 444) | MIC (P. aeruginosa; P. aeruginosa KUB No. 5790, AR Bank # 445) | MIC (P. aeruginosa; P. aeruginosa KUB No. 5793, AR Bank # 449) | MIC (P. aeruginosa; P. aeruginosa KUB No. 5802, AR Bank # 459)
0.002 µg/mL: MIC (P. aeruginosa; P. aeruginosa KUB No. 5815, AR Bank # 510) | MIC (P. aeruginosa; P. aeruginosa KUB No. 5832, AR Bank # 527)
0.12 to 16 µg/mL: MICrange (53 CRE and CPE strains; 53 bacterial isolates)
16 µg/mL: MIC (P. aeruginosa; P. aeruginosa KUB No. 5551, AR Bank # 54) | MIC (P. aeruginosa; P. aeruginosa KUB No. 5597, AR Bank # 100) | MIC (P. aeruginosa; P. aeruginosa KUB No. 5600, AR Bank # 103) | MIC (P. aeruginosa; P. aeruginosa KUB No. 5662, AR Bank # 229) | MIC (P. aeruginosa; P. aeruginosa KUB No. 5664, AR Bank # 231) | MIC (P. aeruginosa; P. aeruginosa KUB No. 5677, AR Bank # 244) | MIC (P. aeruginosa; P. aeruginosa KUB No. 5678, AR Bank # 245)
1 µg/mL: MIC (P. aeruginosa; P. aeruginosa KUB No. 5676, AR Bank # 243) | MIC (P. aeruginosa; P. aeruginosa KUB No. 5696, AR Bank # 263) | MIC (P. aeruginosa; P. aeruginosa KUB No. 5798, AR Bank # 455) | MIC80 (53 CRE and CPE strains; 53 bacterial isolates, read-out: MIC80)
